No end group written: not given here.
Key:
BHRF1 = BHRF1 (Epstein-Barr virus, UniProt P03182); assay: biochemical; format: binding, Epstein-Barr herpesvirus (EBV)
Mcl-1 = Mcl-1 (Homo sapiens, UniProt Q07820); assay: Direct fluorescence anisotropy binding to Mcl-1
KSBcl-2 = KSBcl-2 (Human herpesvirus 8 type P, UniProt F5HGJ3); assay: biochemical; format: binding, Kaposi's sarcoma-associated herpesvirus (KSHV)
Sequence of KSBcl-2 (F5HGJ3 whole entry): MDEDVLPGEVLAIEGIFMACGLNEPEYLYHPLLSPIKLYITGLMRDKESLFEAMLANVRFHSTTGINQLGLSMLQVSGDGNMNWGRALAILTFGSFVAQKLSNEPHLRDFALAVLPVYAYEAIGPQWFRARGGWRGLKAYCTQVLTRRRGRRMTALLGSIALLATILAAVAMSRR

Sequence of BHRF1 (P03182 whole entry): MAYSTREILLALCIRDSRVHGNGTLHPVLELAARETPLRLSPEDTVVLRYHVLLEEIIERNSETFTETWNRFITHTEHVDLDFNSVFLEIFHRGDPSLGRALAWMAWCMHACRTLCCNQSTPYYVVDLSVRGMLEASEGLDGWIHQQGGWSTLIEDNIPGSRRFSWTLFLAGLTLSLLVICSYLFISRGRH
Sequence of Mcl-1 (Q07820 whole entry): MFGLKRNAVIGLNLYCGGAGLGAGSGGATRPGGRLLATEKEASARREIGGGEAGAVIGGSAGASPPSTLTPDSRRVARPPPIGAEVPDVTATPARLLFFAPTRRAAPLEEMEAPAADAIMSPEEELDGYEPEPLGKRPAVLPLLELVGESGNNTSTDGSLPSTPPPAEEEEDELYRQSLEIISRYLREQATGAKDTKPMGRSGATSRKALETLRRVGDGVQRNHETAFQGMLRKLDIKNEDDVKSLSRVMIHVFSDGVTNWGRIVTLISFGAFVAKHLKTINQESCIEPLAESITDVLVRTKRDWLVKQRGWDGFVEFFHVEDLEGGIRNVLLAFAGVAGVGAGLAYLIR

Substance	Kd (BHRF1) [nM]	Kd (Mcl-1) [nM]	Kd (KSBcl-2) [nM]
RPQIWIHQGLQRLGDGLNAYKAR-NH2 [KL6-7_Y4eK]	> 1000	~7800	2.9 ± 1.3
RPIIWIGQEISRVGDRENAYKAR-NH2 [BL6-22_Y4eK]	30 ± 17	~2200	750 ± 300
RPQIWIHQGLQRLGAGLNAYYAR-NH2 [KL6-7_D3fA]	> 1000	> 5000	180 ± 80
RPNIWLTQRLQRTGDGLNAYYAR-NH2 [KScomp]	> 1000	510 ± 190	13 ± 7.3
